Measured values as given in patent publication US20240316069A1, “METHODS OF TREATING MULTIPLE SCLEROSIS” (ASCENTAGE PHARMA (SUZHOU) CO., LTD., priority 2020, published 2024).
Entries after “also recorded” stand apart in the source; their conditions may differ.

What was measured:
[1] = tested on: MOG35-55 induced experimental autoimmune encephalomyelitis (EAE) model in C57BL/6 mice; test: Clinical scores in MOG35-55 induced EAE model; format: in vivo
[2] = tested on: MOG35-55 induced experimental autoimmune encephalomyelitis (EAE) model in C57BL/6 mice; test: Histopathologic assessment of spinal cord, H&E staining (inflammation) in EAE model; format: in vivo; details: for H&E staining score: day 21, spinal cord, scoring 0 to 4
Description: (§1) The mice were anesthetized with isoflurane and immunized with 300 μg MOG 35-55 peptide emulsified (1:1) in […] Freund's adjuvant with 600 μg Mycobacterium tuberculosis. Each mouse received 0.05 ml emulsion (s.c.) at four sites (back shoulder and tail root). The mice were further intraperitoneally injected with 250 μL pertussis toxin (1 μg/mL) at 0 h and 48 h post immunization. The day when MOG 35-55 peptide was injected was set as day 1.
(§2) Mice in Group 1 were treated with vehicle for 20 days (po, qd, from day 1-20). Mice in Group 2, Group 3 and Group 4 were treated with 100 mg/kg Compound 4 for 20 days (po, qd, from day 1-20), 14 days (po, qd, from day 7-20) and 7 days (po, qd, from day 14-20) respectively. FTY720 was used as positive control which was orally administered to mice in Group 5 for 20 days (qd, from day 1-20). The protocols and procedures involving the care and use of animals were approved by the Institutional Animal Care and Use Committee (IACUC) at Bioduro (Shanghai, China). The information of each group is as follows.
(§3) At the end of the study (day 21), all the animals were sacrificed by CO2, and the spinal cords were collected and fixed in 10% formalin for pathological analysis (H&E and LFB staining). The histopathological score was evaluated microscopically in a blinded manner.
The inflammation of spinal cord was evaluated by H&E staining using a scoring system from 0 to 4: 0, no inflammatory cell infiltration; 1, inflammatory cell infiltration is limited to perivascular and […]; 2, small amount of inflammatory cell infiltration in the spinal cord; 3, medium number of inflammatory cell infiltration in the spinal cord; 4, large number of inflammatory cell infiltration in the spinal cord.

[3] = tested on: peripheral blood mononuclear cell (PBMC); test: Flow cytometry of PBMC lymphocyte subtypes in EAE model; format: in vivo, C57BL/6 mice; details: 100 mg/kg; day 21
[4] = tested on: MOG35-55 induced experimental autoimmune encephalomyelitis (EAE) model in C57BL/6 mice; test: Histopathologic assessment of spinal cord, LFB staining (demyelination) in EAE model; format: in vivo; details: for LFB staining score: day 21, spinal cord, scoring 0 to 4
Description: as §1, §2, §3
The structure and morphology of spinal cord was evaluated by LFB staining using a scoring system from 0 to 4: 0 represents for no demyelination; 1, a small range of demyelination; 2, 2-3 small range of demyelination; 3, 1-2 large range of demyelination; 4, large-scale demyelination involves more than 20% of white matter areas.

[5] = clinical application; cited from earlier work
[6] = 100 mg/kg po qd, 7 days (d14-d20)
[7] = 100 mg/kg po qd, 14 days (d7-d20)
[8] = 100 mg/kg po qd, 20 days (d1-d20)

Row | SMILES | clinical score ([1]; 100 mg/kg po qd, 14 days (d7-d20, Group 3), end of the study (day 21), scoring 0 to 5) | clinical score of EAE (result in words) ([1]; 100 mg/kg po qd, either of the three regimens (20, 14, 7 days)) | H&E staining score [2, 6] | H&E staining score [2, 7] | H&E staining score [2, 8] | H&E staining scores (result in words) ([2]; FIG. 3 legend, regimen not stated) | number of B lymphocytes (CD45+CD3-B220+) in the PBMC [3] | number of CD4+ T lymphocytes (CD45+CD3+CD4+) in the PBMC [3] | number of CD8+ T lymphocytes (CD45+CD3+CD8+) in the PBMC [3] | number of T lymphocytes (CD45+CD3+) in the PBMC [3] | number of double negative T lymphocytes (CD45+CD3+CD4-CD8−) in the PBMC [3] | number of leukocytes (CD45+) in the PBMC [3] | LFB staining score [4, 6] | LFB staining score [4, 7] | LFB staining score [4, 8] | LFB staining scores (result in words) ([4]; FIG. 2 legend, regimen not stated) | symptoms of multiple sclerosis (clinical score, result in words) ([1]; 1 mpk po qd x 20 d (d1-d20), Group 5, entire experiment) | H&E staining score ([2]; 1 mpk po qd x 20 d (d1-d20)) | LFB staining score ([4]; 1 mpk po qd x 20 d (d1-d20)) | cardiovascular toxicity [5]
1 | O=C(NS(=O)(=O)c1ccc(NC[C@H]2COCCO2)c([N+](=O)[O-])c1)c1ccc(N2CCN(CC3=C(c4ccc(Cl)cc4)CC4(CCC4)CC3)CC2)cc1Oc1cnc2[nH]ccc2c1 [Compound 4, (S)-N-((4-(((1,4-dioxan-2-yl)methyl)amino)-3-nitrophenyl)sulfonyl)-2-((1H-pyrrolo[2,3-b]pyridin-5-yl)oxy)-4-(4-((6-(4-chlorophenyl)spiro[3.5]non-6-en-7-yl)methyl)piperazin-1-yl)benzamide] | 2.00±0.58 | significantly reducing the clinical score of EAE; also recorded: reduced the clinical scores | 2.10±0.41 | 1.11±0.33 | 2.00±0.39 | reduced the H&E staining scores | significantly reduced | significantly reduced | significantly reduced | significantly reduced | significantly reduced | significantly reduced | 1.30±0.37 | 1.33±0.44 | 1.80±0.29 | reduced the LFB staining scores |  |  |  | 
2 | CCCCCCCCc1ccc(CCC(N)(CO)CO)cc1.Cl [FTY720, reference compound] |  |  |  |  |  |  |  |  |  |  |  |  |  |  |  |  | no mice developing symptoms of multiple sclerosis | 0 | 0 | obvious cardiovascular toxicity
